{
  "source": "patent US7968595B2",
  "about": "“Substituted 4-aryl-chromene as activator of caspases and inducer of apoptosis and as antivascular agent and the use thereof” (Cytovia, Inc., priority 2006, dated 2011)",
  "test_system": "HUVEC cells",
  "experiment": "HUVEC tube disruption assay",
  "format": "cell-based",
  "procedure": "Aliquots of Matrigel basement membrane matrix (300 μl, BD Biosciences, Mississauga, Ontario, Canada) were added to each well of 24-well plates (Fisher Scientific Ltd, Nepean, Ontario, Canada) and allowed to incubate for 1 h at 37° C. HUVEC cells (3×10^4) were added per well in EGM-2 and incubated for 4 h at 37° C. in a 5% CO2 atmosphere to allow the cells to form tube-like structures. Compound 1R was diluted in DMSO to its respective concentrations, added to cells, and allowed to incubate for 1 h at 37° C. in a 5% CO2 atmosphere. Following the incubation, the medium was gently aspirated and fresh EGM-2 was added and cells were further incubated for 24 h. Miroscopy images were recorded with a Zeiss LSM 510 confocal microscope (Zeiss Canada Ltd, Toronto, Ontario, Canada). The effect of compound 1R on capillary tube disruption was evaluated by light microscopy (×40 magnification) and the results are summarized in Table III.",
  "data": [
    {"smiles": "COc1cc([C@H]2C(C#N)=C(N)Oc3c2ccc(N)c3N)cc(Br)c1OC", "note": "[Compound 1R, R(−)-2,7,8-triamino-4-(3-bromo-4,5-dimethoxy-phenyl)-3-cyano-4H-chromene]", "values": [
      {"measurement": "Tube formation % inhibition", "setting": "3.3 nM", "value": "No inhibition"},
      {"measurement": "Lowest concentration that inhibited tube formation", "setting": "HUVEC tubes", "value": 10, "unit": "nM"},
      {"measurement": "inhibition at 0.01 µM", "setting": "Homo sapiens, HUVEC, 10 nM, read-out: Tube formation % inhibition", "value": 75, "unit": "%"},
      {"measurement": "inhibition at 0.03 µM", "setting": "Homo sapiens, HUVEC, 30 nM, read-out: Tube formation % inhibition", "value": 100, "unit": "%"},
      {"measurement": "inhibition at 0.1 µM", "setting": "Homo sapiens, HUVEC, 100 nM, read-out: Tube formation % inhibition", "value": 100, "unit": "%"}
    ]}
  ]
}
